Reference: ChEMBL document CHEMBL1909046, “DrugMatrix in vitro pharmacology data”

How the values were obtained:
[1] = biological target: T1, Cysteinyl leukotriene receptor 1 (Homo sapiens, UniProt Q9Y271); type: cell membranes, Membrane; conditions: cho-k1; further: in other assays of this panel Not Active means under 50% inhibition at 10 µM
T1 sequence (Q9Y271 whole entry): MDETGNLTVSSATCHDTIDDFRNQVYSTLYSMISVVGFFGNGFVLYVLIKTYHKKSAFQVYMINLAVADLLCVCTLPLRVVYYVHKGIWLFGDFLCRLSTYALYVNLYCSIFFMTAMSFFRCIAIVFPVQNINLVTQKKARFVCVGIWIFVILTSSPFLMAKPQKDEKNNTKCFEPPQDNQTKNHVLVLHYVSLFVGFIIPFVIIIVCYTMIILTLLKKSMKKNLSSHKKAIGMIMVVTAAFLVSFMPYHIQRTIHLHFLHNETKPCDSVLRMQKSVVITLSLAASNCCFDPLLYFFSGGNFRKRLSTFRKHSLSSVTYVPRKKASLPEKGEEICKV

[2] = biological target: T2, C-X-C chemokine receptor type 2 (Homo sapiens, UniProt P25025); type: cell membranes, Membrane; conditions: cho-k1; further: in other assays of this panel Not Active means under 50% inhibition at 10 µM
T2 sequence (P25025 whole entry): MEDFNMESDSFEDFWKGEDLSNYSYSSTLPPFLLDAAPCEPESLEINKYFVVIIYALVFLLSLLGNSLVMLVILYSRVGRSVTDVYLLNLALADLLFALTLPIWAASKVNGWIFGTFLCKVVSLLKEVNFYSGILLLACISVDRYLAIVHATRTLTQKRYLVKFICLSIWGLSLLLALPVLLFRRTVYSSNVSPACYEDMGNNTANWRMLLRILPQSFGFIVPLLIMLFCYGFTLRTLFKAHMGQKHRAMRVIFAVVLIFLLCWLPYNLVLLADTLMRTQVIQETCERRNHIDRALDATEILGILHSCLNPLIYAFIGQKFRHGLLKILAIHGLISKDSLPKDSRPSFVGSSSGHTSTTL

[3] = biological target: Beta-3 adrenergic receptor (Homo sapiens, UniProt P13945); assay: DRUGMATRIX: Adrenergic beta3 radioligand binding (ligand: [125I] Cyanopindolol); type: cell membranes, HEK293, Membrane; conditions: Not Active = under 50% inhibition at 10 µM
Sequence of Beta-3 adrenergic receptor (P13945 whole entry): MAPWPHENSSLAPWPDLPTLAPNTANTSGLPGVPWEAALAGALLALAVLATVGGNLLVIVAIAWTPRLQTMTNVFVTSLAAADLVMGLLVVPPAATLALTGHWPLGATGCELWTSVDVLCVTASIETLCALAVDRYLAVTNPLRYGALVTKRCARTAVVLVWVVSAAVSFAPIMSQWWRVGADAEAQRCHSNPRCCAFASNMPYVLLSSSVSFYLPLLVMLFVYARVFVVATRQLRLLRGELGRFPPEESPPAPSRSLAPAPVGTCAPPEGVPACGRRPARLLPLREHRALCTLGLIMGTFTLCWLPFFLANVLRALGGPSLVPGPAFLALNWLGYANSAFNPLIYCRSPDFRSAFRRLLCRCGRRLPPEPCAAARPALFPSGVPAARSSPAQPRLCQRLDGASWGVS

Nitric oxide synthase 1 = Nitric oxide synthase 1 (Rattus norvegicus, UniProt P29476); type: tissue-based, Cerebellum; further: in other assays of this panel Not Active means under 50% inhibition at 10 µM
Sequence of Nitric oxide synthase 1 (P29476 whole entry): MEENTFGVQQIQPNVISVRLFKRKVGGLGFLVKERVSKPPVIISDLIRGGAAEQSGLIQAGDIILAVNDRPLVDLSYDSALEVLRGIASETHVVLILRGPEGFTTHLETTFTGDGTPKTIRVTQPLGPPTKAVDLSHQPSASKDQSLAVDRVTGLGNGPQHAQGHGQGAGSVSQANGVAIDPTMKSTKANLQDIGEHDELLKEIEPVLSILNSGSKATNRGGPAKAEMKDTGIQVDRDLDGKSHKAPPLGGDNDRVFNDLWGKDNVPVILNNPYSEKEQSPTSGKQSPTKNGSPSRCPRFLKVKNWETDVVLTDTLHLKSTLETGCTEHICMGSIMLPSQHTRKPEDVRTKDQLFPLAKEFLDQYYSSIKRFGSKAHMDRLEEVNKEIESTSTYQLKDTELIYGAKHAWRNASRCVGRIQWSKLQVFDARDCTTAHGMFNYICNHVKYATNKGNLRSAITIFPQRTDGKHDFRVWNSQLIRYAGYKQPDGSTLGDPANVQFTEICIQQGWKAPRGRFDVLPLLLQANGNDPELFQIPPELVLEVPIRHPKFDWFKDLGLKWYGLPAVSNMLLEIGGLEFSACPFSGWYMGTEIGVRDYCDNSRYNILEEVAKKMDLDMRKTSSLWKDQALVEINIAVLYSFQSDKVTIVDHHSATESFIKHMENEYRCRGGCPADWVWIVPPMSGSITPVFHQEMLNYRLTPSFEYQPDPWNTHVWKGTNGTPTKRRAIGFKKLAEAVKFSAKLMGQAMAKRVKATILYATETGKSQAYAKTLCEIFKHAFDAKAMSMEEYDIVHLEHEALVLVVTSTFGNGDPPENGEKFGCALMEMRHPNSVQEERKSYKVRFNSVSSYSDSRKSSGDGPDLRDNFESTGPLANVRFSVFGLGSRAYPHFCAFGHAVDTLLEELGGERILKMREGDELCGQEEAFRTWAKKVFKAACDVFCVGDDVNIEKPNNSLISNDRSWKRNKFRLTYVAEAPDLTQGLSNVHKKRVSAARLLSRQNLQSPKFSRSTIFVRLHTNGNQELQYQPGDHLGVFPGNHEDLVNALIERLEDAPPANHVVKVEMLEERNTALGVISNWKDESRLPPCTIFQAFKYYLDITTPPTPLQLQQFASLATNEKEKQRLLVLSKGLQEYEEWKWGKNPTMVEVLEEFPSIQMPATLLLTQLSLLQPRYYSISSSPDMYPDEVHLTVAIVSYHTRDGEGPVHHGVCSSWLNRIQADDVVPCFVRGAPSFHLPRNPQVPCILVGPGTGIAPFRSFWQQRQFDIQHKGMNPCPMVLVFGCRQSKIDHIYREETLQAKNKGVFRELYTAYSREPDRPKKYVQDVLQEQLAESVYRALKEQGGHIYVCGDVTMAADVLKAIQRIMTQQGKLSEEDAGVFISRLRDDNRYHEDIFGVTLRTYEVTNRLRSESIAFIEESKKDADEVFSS

Melanocortin receptor 5 = Melanocortin receptor 5 (Homo sapiens, UniProt P33032); type: cell membranes, HEK293, Membrane; further: in other assays of this panel Not Active means under 50% inhibition at 10 µM
Sequence of Melanocortin receptor 5 (P33032 whole entry): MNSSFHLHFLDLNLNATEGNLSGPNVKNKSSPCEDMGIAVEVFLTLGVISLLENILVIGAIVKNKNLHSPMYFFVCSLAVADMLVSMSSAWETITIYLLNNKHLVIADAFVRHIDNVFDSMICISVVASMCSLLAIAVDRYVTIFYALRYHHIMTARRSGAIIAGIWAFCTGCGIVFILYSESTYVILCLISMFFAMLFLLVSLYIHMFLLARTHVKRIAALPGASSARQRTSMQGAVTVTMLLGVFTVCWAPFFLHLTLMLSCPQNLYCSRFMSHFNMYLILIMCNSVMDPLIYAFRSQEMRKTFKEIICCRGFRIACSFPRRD

Structure (SMILES)	IC50 [1]	IC50 [2]	IC50 ([3]; hek293)	IC50 (Nitric oxide synthase 1)	IC50 (Melanocortin receptor 5; hek293)	IC50 ([3]; read-out: IC50)	Ki ([3]; read-out: Ki)	IC50 (Melanocortin receptor 5; read-out: IC50)	Ki (Melanocortin receptor 5; read-out: Ki)
O=C(c1ccccc1C(F)(F)F)N1CCC(Cc2ccccc2)CC1	Not Active	Not Active	Not Active	Not Active	Not Active	–	–	–	–
O=C/C=C/c1ccccc1	Not Active	Not Active	Not Active	Not Active	Not Active	–	–	–	–
Nc1ccc2c3c(cccc13)C(=O)NC2=O	Not Active	Not Active	Not Active	Not Active	Not Active	–	–	–	–
COc1ccc(C(=O)N2CCCC2=O)cc1	Not Active	Not Active	Not Active	Not Active	Not Active	–	–	–	–
O=c1cnn([C@@H]2O[C@H](CO)[C@@H](O)[C@H]2O)c(=O)[nH]1 [6-AZAURIDINE]	Not Active	Not Active	Not Active	Not Active	Not Active	–	–	–	–
CC[C@H](C)[C@H]1O[C@]2(C=C[C@@H]1C)C[C@@H]1C[C@@H](C/C=C(\C)[C@@H](O[C@H]3C[C@H](OC)[C@@H](O[C@H]4C[C@H](OC)[C@@H](O)[C@H](C)O4)[C@H](C)O3)[C@@H](C)/C=C/C=C3\CO[C@@H]4[C@H](O)C(C)=C[C@@H](C(=O)O1)[C@]34O)O2.CO[C@H]1C[C@H](O[C@H]2[C@H](C)O[C@@H](O[C@@H]3/C(C)=C/C[C@@H]4C[C@@H](C[C@]5(C=C[C@H](C)[C@@H](C(C)C)O5)O4)OC(=O)[C@@H]4C=C(C)[C@@H](O)[C@H]5OC/C(=C\C=C\[C@@H]3C)[C@]54O)C[C@@H]2OC)O[C@@H](C)[C@@H]1O [ABAMECTIN]	Not Active	Not Active	Not Active	Not Active	Not Active	–	–	–	–
NCCCC(O)(P(=O)(O)O)P(=O)(O)O [ALENDRONIC ACID]	Not Active	Not Active	Not Active	Not Active	Not Active	–	–	–	–
Cc1nnc2n1-c1ccc(Cl)cc1C(c1ccccc1)=NC2 [ALPRAZOLAM]	Not Active	Not Active	Not Active	Not Active	Not Active	–	–	–	–
Cn1c(=O)c2[nH]cnc2n(C)c1=O.Cn1c(=O)c2[nH]cnc2n(C)c1=O.NCCN [AMINOPHYLLINE]	Not Active	Not Active	Not Active	Not Active	Not Active	–	–	–	–
CCC1(CCC(C)C)C(=O)NC(=O)NC1=O [AMOBARBITAL]	Not Active	Not Active	Not Active	Not Active	Not Active	–	–	–	–
CC1(C)S[C@@H]2[C@H](NC(=O)[C@H](N)c3ccccc3)C(=O)N2[C@H]1C(=O)O [AMPICILLIN]	Not Active	Not Active	Not Active	Not Active	Not Active	–	–	–	–
COc1ccc(C2C(=O)c3ccccc3C2=O)cc1 [ANISINDIONE]	Not Active	Not Active	Not Active	Not Active	Not Active	–	–	–	–
O=C1O[C@H]([C@@H](O)CO)C(O)=C1O [ASCORBIC ACID]	Not Active	Not Active	Not Active	Not Active	Not Active	–	–	–	–
CN1[C@@H]2CC[C@H]1C[C@@H](OC(=O)C(CO)c1ccccc1)C2 (stereo not given in full) [ATROPINE]	Not Active	Not Active	Not Active	Not Active	Not Active	–	–	–	–
CC(C(=O)O)c1ccc2oc(-c3ccc(Cl)cc3)nc2c1 (stereo not given) [BENOXAPROFEN]	Not Active	Not Active	Not Active	Not Active	Not Active	–	–	–	–
COc1ccc2cc3[n+](cc2c1OC)CCc1cc2c(cc1-3)OCO2.[Cl-] [BERBERINE CHLORIDE]	Not Active	Not Active	Not Active	Not Active	Not Active	–	–	–	–
O=C(O)CCNC(=O)c1ccccc1 [BETAMIPRON]	Not Active	Not Active	Not Active	Not Active	Not Active	–	–	–	–
CC(=O)Oc1ccc(C(c2ccc(OC(C)=O)cc2)c2ccccn2)cc1 [BISACODYL]	Not Active	Not Active	Not Active	Not Active	Not Active	–	–	–	–

Structure (SMILES)	IC50 [1]	IC50 [2]	IC50 ([3]; hek293)	IC50 (Nitric oxide synthase 1)	IC50 (Melanocortin receptor 5; hek293)	IC50 ([3]; read-out: IC50)	Ki ([3]; read-out: Ki)	IC50 (Melanocortin receptor 5; read-out: IC50)	Ki (Melanocortin receptor 5; read-out: Ki)
Cc1cc2c(OCC(CNC(C)(C)C)OC(=O)c3ccccc3)cccc2[nH]1 (stereo not given) [BOPINDOLOL]	Not Active	Not Active	–	Not Active	Not Active	458 nM	344 nM	–	–
Brc1c(NC2=NCCN2)ccc2nccnc12 [BRIMONIDINE]	Not Active	Not Active	Not Active	Not Active	Not Active	–	–	–	–
CN(C)[C@@H]1C(O)=C(C(N)=O)C(=O)[C@@]2(O)C(O)=C3C(=O)c4c(O)ccc(Cl)c4[C@@](C)(O)[C@H]3C[C@@H]12 [CHLORTETRACYCLINE]	Not Active	Not Active	Not Active	Not Active	Not Active	–	–	–	–
CN/C(=N\CCSCc1nc[nH]c1C)NC#N [CIMETIDINE]	Not Active	Not Active	Not Active	Not Active	Not Active	–	–	–	–
COc1cc(N)c(Cl)cc1C(=O)NC1CCN(CCCOc2ccc(F)cc2)CC1OC (stereo not given) [CISAPRIDE]	Not Active	Not Active	Not Active	Not Active	Not Active	–	–	–	–
CCC(=O)O[C@]1(C(=O)CCl)[C@@H](C)C[C@H]2[C@@H]3CCC4=CC(=O)C=C[C@]4(C)[C@@]3(F)[C@@H](O)C[C@@]21C [CLOBETASOL PROPIONATE]	Not Active	Not Active	Not Active	Not Active	Not Active	–	–	–	–
O=C1CN=C(c2ccccc2Cl)c2cc([N+](=O)[O-])ccc2N1 [CLONAZEPAM]	Not Active	Not Active	Not Active	Not Active	Not Active	–	–	–	–
Nc1ccn([C@@H]2O[C@H](CO)[C@@H](O)[C@@H]2O)c(=O)n1 [CYTARABINE]	Not Active	Not Active	Not Active	Not Active	Not Active	–	–	–	–
C[C@@H]1C[C@H]2[C@@H]3CCC4=CC(=O)C=C[C@]4(C)[C@@]3(F)[C@@H](O)C[C@]2(C)[C@H]1C(=O)CO [DESOXIMETASONE]	Not Active	Not Active	Not Active	Not Active	Not Active	–	–	–	–
C[C@@H]1C[C@H]2[C@@H]3CCC4=CC(=O)C=C[C@]4(C)[C@@]3(F)[C@@H](O)C[C@]2(C)[C@@]1(O)C(=O)CO [DEXAMETHASONE]	Not Active	Not Active	Not Active	Not Active	Not Active	–	–	–	–
CN(C)CC[C@@H](c1ccc(Cl)cc1)c1ccccn1 [DEXCHLORPHENIRAMINE]	Not Active	Not Active	Not Active	Not Active	Not Active	–	–	–	–
C[C@@H]1CC[C@@]2(OC1)O[C@H]1[C@@H](O)[C@H]3[C@@H]4CC[C@H]5C[C@@H](O[C@@H]6O[C@H](CO)[C@H](O[C@@H]7O[C@H](CO)C(O)[C@H](O[C@@H]8OC[C@@H](O)[C@H](O)[C@H]8O)[C@H]7O[C@@H]7O[C@H](CO)[C@H](O)[C@H](O[C@@H]8O[C@H](CO)[C@@H](O)[C@H](O)[C@H]8O)[C@H]7O)[C@H](O)[C@H]6O)[C@H](O)C[C@]5(C)[C@H]4CC[C@]3(C)[C@H]1[C@@H]2C (stereo not given in full) [DIGITONIN]	Not Active	Not Active	Not Active	Not Active	–	–	–	3880 nM	3640 nM
OC(CCCN1CCCCC1)(c1ccccc1)c1ccccc1 [DIPHENIDOL]	Not Active	Not Active	Not Active	Not Active	Not Active	–	–	–	–
C[C@H]1O[C@@H](n2cc(F)c(=O)[nH]c2=O)[C@H](O)[C@@H]1O [DOXIFLURIDINE]	Not Active	Not Active	Not Active	Not Active	Not Active	–	–	–	–
Cn1c(=O)c2c(ncn2CC(O)CO)n(C)c1=O (stereo not given) [DYPHYLLINE]	Not Active	Not Active	Not Active	Not Active	Not Active	–	–	–	–
CC[C@H]1CN2CCc3cc(OC)c(OC)cc3[C@@H]2C[C@@H]1C[C@H]1NCCc2cc(OC)c(OC)cc21 [EMETINE]	Not Active	Not Active	Not Active	Not Active	Not Active	–	–	–	–
CC(C)NCC(O)COc1cccc2[nH]ccc12 (stereo not given) [PINDOLOL]	Not Active	Not Active	–	Not Active	Not Active	–	–	–	–
CCCNCC(O)COc1ccccc1C(=O)CCc1ccccc1 (stereo not given) [PROPAFENONE]	Not Active	Not Active	–	Not Active	Not Active	–	–	–	–
